Source: patent US9422267B2, “Fused pyrimidine compounds and use thereof” (Medivation Technologies, Inc., priority 2012, dated 2016)
Where “and” joins values, the source holds several entries; their conditions need not be identical. Equal values may be shown once. Read-outs that look alike come from different tables or passages of the source.

Columns and labels:
[1] = tested on: MDA MB 231; test: Cell Titer-Glo cell viability: MDA MB 231; format: cell-based; conditions: Homo sapiens, MDAMB231, breast cancer
Description: (§1) Compound nos. […] This panel of cell lines includes an ER− breast carcinoma, primary breast ductal carcinoma, prostate adenocarcinoma, mammary adenocarcinoma, mammary ductal carcinoma, mammary ductal carcinoma, ovary adenocarcinoma, ER+ breast carcinoma, ER-HER2+ mammary ductal carcinoma and an ER+ mammary ductal carcinoma, respectively.
(§2) This assay quantitates the ATP present in order to determine the number of viable cells in culture. Briefly, the compounds were incubated with the cells for 72 h, followed by cell lysis. The resulting luminescent signal is proportional to the amount of ATP present and, therefore, directly proportional to the number of cells present in culture.
(§3) Compounds 2b, 5, 6b and 10a were tested along with derivatives in viability assays as described above by Caliper LifeSciences Systems (Hanover, Md.), in A549, HCT-15, HCT-116, MCF-7, MDA-MB-231, OVCAR3, T47D, COLO205, HT-29, BT-20, HCC1187, HL-60, MDA-MB-175, SW-620, and UACC812 cells.

[2] = tested on: SW-620; test: Cell Titer-Glo cell viability: SW-620; format: cell-based; conditions: Homo sapiens, SW-620, 72 h, SW-620, metastatic colorectal cancer
Description: as §2
(§4) Compound nos. […] These cell lines are derived from human lung carcinoma, colon adenocarcinoma, colon adenocarcinoma, colon carcinoma, acute promyelocytic leukemia, colon adenocarcinoma, colon adenocarcinoma (from metastatic site lymph node), respectively.
as §3

[3] = tested on: Akt phosphorylation induced by IGF-1R in HT-29 cells; test: Western blot analysis of Akt phosphorylation induced by IGF-1R; format: cell-based, Human; conditions: then IGF-1 10 ng/mL 10 min, HT-29
[4] = target: T1, AXL (Homo sapiens, UniProt P30530); test: Caliper kinase profiling: AXL; conditions: for inhibition at 0.01 µM: read-out: Average % Inh @ 10 nM
T1 sequence (P30530 26-894): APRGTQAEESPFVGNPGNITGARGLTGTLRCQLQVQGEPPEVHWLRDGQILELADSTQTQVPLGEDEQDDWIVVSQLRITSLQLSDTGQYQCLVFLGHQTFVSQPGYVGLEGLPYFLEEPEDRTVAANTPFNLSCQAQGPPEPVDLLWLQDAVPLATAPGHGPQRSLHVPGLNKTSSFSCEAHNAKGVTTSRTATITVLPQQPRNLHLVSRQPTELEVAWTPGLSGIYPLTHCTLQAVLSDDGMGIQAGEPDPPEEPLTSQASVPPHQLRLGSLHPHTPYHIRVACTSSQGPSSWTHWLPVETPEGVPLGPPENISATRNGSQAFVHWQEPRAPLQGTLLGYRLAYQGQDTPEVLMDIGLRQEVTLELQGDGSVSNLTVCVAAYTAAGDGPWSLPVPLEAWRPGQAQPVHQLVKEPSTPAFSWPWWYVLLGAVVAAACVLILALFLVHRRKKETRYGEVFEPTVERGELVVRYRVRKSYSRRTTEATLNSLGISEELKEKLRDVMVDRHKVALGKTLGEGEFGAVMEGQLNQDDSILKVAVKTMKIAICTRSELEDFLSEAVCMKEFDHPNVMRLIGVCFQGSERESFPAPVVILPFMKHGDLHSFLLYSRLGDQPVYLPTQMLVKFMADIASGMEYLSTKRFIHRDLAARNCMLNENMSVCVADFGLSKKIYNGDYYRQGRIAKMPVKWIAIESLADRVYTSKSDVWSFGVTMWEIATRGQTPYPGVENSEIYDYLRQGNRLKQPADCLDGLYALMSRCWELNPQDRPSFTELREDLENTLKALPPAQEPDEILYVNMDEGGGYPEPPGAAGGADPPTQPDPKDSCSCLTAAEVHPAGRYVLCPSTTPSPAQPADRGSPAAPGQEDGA
Description: (§6) The compound was tested at concentrations of 1.0×10^−8 and 1.0×10^−9 M in the RapidKinase192™ panel in duplicate. […] The screening was performed using the Caliper EZReader2, a 4-sipper LabChip, and ProfilerPro Kinase Selectivity Assay Kits 1 and 2. The assay measures the conversion of a fluorescent peptide substrate to a phosphorylated product. Briefly, the reaction mixture was introduced through a capillary sipper onto the microfluidic chip, where the substrate and product were electrophoretically separated and detected by laser-induced fluorescence. The time-dependent fluorescence signal indicates the extent of the reaction.
(§7) The kinases tested were AurA, AurB, AurC, AXL, FAK2, IGF1R, InsR, Mer, MET, TrkB and TrkC.
(§8) The assays were conducted using the Caliper LabChip 3000 and a 12-sipper LabChip as described above.

[5] = target: TRKC (NTRK3) (Homo sapiens, UniProt Q16288); test: Caliper kinase profiling: TRKC (NTRK3); conditions: for inhibition at 0.01 µM: read-out: Average % Inh @ 10 nM
Description: as §6, §7, §8

[6] = tested on: HL-60; test: Cell Titer-Glo cell viability: HL-60; format: cell-based, human; conditions: Homo sapiens, HL-60, 72 h
Description: as §2, §4, §3

[7] = target: IGF1R (Homo sapiens, UniProt P08069); test: In vitro IGF-1R enzymatic assay (ADP-Glo kinase assay); format: biochemical; set-up: purchased Millipore 14-802
Description: (§5) IC50 values of the compounds of the invention against IGF-1R and IR were measured in vitro using an ADP-Glo kinase assay Kit (Promega). […] Kinase reactions in both assays were conducted at 30° C. for 20 min with increasing concentrations of compounds of the invention.

[8] = tested on: MCF-7; test: Cell Titer-Glo cell viability: MCF-7; format: cell-based; conditions: Homo sapiens, MCF7, breast cancer
Description: as §1, §2, §3

[9] = tested on: LNCaP; test: Cell Titer-Glo cell viability: LNCaP; format: cell-based; conditions: Homo sapiens
Description: as §1, §2

[10] = target: T2, IR (Homo sapiens, UniProt P06213); test: In vitro IR enzymatic assay (ADP-Glo kinase assay); format: biochemical
T2 construct: purchased Millipore 14-803
Description: as §5

[11] = tested on: BT-20; test: Cell Titer-Glo cell viability: BT-20; format: cell-based; conditions: Homo sapiens
Description: as §1, §2, §3

[12] = tested on: HCT-15; test: Cell Titer-Glo cell viability: HCT-15; format: cell-based; conditions: Homo sapiens, HCT-15, 72 h, HCT15, colon carcinoma
Description: as §2, §4, §3

[13] = tested on: UACC 812; test: Cell Titer-Glo cell viability: UACC 812; format: cell-based; conditions: Homo sapiens
Description: as §1, §2, §3
The inhibitory effects of Compound 8a were tested in two cell lines.

[14] = tested on: A549; test: Cell Titer-Glo cell viability: A549; format: cell-based; conditions: Homo sapiens, A549, 72 h, A549, non-small lung carcinoma
Description: as §2, §4, §3

[15] = 72 h incubation, Cell Titer-Glo
[16] = HL60, promyelocytic leukemia, 72 h incubation, Cell Titer-Glo
[17] = activated IGF-1R, read-out: IC50
[18] = Prostate cancer, 72 h incubation, Cell Titer-Glo
[19] = BT-20, breast cancer, 72 h incubation, Cell Titer-Glo
[20] = UACC 812, breast cancer, 72 h incubation, Cell Titer-Glo
[21] = read-out: Average % Inh @ 100 nM
[22] = HL60, promyelocytic leukemia (second entry of the table), 72 h
[23] = HL-60, promyelocytic leukemia, 72 h
[24] = IGF-1R, ATP 100 μM, run N1, read-out: IC50 (M) N1
[25] = IGF-1R, ATP 100 μM, run N2, read-out: IC50 (M) N2

Sequence of TRKC (NTRK3) (Q16288 32-839): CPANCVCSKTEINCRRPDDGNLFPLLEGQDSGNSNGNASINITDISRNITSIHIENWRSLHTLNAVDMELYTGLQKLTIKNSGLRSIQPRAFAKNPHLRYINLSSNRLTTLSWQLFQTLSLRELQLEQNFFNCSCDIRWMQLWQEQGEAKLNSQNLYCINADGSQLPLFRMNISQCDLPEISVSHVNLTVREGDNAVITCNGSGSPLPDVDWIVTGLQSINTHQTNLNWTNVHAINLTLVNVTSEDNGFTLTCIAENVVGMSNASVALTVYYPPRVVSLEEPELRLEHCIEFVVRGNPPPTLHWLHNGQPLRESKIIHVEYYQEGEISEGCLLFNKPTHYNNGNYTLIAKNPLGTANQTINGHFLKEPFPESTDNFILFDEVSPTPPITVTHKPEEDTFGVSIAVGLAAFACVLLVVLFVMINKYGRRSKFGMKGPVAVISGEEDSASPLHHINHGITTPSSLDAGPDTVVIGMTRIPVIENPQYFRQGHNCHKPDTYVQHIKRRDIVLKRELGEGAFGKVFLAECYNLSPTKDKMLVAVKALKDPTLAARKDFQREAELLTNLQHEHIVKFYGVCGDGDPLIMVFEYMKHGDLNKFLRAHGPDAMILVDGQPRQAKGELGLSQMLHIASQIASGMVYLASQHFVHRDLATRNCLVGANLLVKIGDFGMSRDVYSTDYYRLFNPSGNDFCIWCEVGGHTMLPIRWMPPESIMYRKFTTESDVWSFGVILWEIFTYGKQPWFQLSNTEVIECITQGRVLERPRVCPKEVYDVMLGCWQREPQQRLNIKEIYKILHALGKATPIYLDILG
T2 sequence (P06213 28-1382): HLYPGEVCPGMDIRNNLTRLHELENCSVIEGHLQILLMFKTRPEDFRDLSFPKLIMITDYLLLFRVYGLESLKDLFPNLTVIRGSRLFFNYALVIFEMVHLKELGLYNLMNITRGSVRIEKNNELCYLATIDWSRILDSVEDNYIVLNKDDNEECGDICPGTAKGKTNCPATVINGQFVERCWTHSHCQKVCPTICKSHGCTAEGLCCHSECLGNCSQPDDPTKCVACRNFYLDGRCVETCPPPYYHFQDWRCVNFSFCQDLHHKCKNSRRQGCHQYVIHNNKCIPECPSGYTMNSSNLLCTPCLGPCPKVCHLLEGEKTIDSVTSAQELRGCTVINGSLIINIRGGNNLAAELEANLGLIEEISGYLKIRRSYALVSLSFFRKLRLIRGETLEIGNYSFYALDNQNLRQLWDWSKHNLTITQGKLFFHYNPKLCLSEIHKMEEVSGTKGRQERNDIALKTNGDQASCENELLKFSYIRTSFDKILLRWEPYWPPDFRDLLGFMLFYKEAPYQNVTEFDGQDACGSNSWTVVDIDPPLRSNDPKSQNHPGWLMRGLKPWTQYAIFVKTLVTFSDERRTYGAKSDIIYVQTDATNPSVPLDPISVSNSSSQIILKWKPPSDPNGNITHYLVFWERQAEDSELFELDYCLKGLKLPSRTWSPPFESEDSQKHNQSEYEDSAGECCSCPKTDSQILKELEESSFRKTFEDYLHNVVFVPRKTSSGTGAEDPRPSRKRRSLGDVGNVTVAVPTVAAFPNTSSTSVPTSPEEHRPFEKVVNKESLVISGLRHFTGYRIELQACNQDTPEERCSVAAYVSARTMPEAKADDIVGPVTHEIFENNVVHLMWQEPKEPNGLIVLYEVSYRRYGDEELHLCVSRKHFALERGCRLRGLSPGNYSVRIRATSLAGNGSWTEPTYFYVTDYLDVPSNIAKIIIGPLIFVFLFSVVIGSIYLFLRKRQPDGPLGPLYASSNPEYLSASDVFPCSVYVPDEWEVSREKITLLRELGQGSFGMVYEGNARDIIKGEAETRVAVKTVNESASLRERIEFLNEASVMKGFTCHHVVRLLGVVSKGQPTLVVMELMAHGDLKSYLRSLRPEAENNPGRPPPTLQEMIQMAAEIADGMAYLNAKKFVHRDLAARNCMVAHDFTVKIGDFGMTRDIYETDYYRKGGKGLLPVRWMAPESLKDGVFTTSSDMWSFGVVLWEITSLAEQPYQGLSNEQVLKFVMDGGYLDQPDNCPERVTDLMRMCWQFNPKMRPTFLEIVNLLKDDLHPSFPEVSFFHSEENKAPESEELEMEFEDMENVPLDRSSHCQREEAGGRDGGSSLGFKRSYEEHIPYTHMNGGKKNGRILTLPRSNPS
Sequence of IGF1R (P08069 31-1367): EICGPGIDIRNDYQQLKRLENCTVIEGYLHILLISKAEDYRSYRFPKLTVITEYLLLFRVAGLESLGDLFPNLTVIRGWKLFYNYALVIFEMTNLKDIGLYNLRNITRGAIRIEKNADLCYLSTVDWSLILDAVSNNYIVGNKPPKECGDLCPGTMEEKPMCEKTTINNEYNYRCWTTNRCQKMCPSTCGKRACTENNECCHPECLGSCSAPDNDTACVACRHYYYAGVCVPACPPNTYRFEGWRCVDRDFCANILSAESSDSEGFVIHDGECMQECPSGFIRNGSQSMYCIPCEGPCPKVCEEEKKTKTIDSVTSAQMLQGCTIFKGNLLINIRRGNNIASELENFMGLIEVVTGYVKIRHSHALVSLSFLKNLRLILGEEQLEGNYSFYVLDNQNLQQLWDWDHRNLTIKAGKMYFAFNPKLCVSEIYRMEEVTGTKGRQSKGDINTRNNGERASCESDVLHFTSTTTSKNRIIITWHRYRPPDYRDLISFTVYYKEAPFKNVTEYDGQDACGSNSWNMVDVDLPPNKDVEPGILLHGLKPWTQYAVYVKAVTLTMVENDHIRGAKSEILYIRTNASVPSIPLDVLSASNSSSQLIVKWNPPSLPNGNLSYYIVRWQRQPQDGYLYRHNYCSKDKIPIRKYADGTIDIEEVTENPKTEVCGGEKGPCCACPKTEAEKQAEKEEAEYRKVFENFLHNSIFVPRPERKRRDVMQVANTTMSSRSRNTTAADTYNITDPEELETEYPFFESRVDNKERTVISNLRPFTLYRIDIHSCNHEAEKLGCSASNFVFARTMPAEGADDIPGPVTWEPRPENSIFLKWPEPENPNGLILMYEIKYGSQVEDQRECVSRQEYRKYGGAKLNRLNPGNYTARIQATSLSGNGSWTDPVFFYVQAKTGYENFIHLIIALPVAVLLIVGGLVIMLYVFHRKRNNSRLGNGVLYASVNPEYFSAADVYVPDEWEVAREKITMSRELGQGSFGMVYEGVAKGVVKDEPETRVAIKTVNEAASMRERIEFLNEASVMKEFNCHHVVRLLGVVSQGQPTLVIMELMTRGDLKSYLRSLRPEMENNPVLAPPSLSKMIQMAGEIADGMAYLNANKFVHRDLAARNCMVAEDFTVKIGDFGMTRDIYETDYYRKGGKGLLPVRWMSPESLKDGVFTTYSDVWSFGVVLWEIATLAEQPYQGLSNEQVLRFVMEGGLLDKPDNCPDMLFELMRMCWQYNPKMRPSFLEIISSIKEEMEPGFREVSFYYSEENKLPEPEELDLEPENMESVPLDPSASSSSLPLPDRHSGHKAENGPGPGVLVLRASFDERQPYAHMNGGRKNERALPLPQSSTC

SMILES	IC50 [1, 15] [nM]	IC50 [2, 15] [nM]	phosphorylated AKT levels normalized to actin levels (pAKT/actin) ([3]; 1 nM compound 2 h)	phosphorylated AKT levels normalized to actin levels (pAKT/actin) ([3]; 10 nM compound 2 h)	phosphorylated AKT levels normalized to actin levels (pAKT/actin) ([3]; 100 nM compound 2 h)	IC50 [6, 16] [nM]	IC50 [7, 17]	IC50 [8, 15] [nM]	IC50 [9, 18] [nM]	IC50 ([10]; activated IR, read-out: IC50)	IC50 [11, 19] [nM]	IC50 [12, 15] [nM]	IC50 [13, 20] [nM]	IC50 [14, 15] [nM]	IC50 ([2]; 72 h) [nM]	inhibition at 0.01 µM [4] [%]	inhibition at 0.01 µM [5] [%]	IC50 [6, 22] [nM]	IC50 [6, 23] [nM]	Hill Slope N1 ([7]; IGF-1R, ATP 100 μM, run N1)	further results
O=C(Nc1ccc(F)nc1)C1CCN1c1nc2c(c(Nc3cc(C4CC4)[nH]n3)n1)CCC2 (racemic) [Compound 5, 1-(4-(5-cyclopropyl-1H-pyrazol-3-ylamino)-6,7-dihydro-5H-cyclopenta[d]pyrimidin-2-yl)-N-(6-fluoropyridin-3-yl)azetidine-2-carboxamide]	< 10000	< 1000	0.61	0.04	0.00	< 100	1.3e-08 M and 1.7e-08 M	< 1000	100	8.3e-09 M and 1.2e-08 M	< 10000	< 10000	< 100000	< 1000							inhibition of AXL in panel of 11 kinases ([4]; 0.01 μM): strongly inhibited; inhibition of TrkC in panel of 11 kinases ([5]; 0.01 μM): strongly inhibited; inhibition at 0.03 µM ([7]; activated IGF-1R, 30 nM, average, read-out: % Inh @ 30 nM Avg): 66%; inhibition at 0.03 µM ([10]; activated IR, 30 nM, average, read-out: % Inh @ 30 nM Avg): 76%
O=C(Nc1ccc(F)nc1)C1CCCN1c1nc2c(c(Nc3cc(C4CC4)[nH]n3)n1)CCC2 (single isomer, unassigned) [Compound 2b, 1-(4-(5-cyclopropyl-1H-pyrazol-3-ylamino)-6,7-dihydro-5H-cyclopenta[d]pyrimidin-2-yl)-N-(6-fluoropyridin-3-yl)pyrrolidine-2-carboxamide]	1000	< 1000	0.80	0.22	0.03	< 1000	6.1e-09 M	1000	< 1000	5.7e-09 M	1000	1000	< 10000	< 1000	100	40 to 59	> 60	< 10	< 10000	1.195	inhibition at 0.1 µM [4, 21]: > 60%; inhibition at 1 µM ([4]; read-out: Average % Inh @ 1 μM): > 60%; inhibition at 0.1 µM [5, 21]: > 60%; inhibition at 1 µM ([5]; read-out: Average % Inh @ 1 μM): > 60%; IC50 [7, 24]: 7.24e-09 M; Hill Slope N2 ([7]; IGF-1R, ATP 100 μM, run N2): 1.384; IC50 [7, 25]: 5.29e-09 M; Hill Slope N1 ([10]; IR, ATP 50 μM, run N1): 1.34; IC50 ([10]; IR, ATP 50 μM, run N1, read-out: IC50 (M) N1): 5.51e-09 M; Hill Slope N2 ([10]; IR, ATP 50 μM, run N2): 1.13; IC50 ([10]; IR, ATP 50 μM, run N2, read-out: IC50 (M) N2): 4.07e-09 M; IC50 ([12]; 72 h): < 10000 nM; IC50 ([14]; 72 h): 1000 nM
CC(C)c1cc(Nc2nc(N3CCCC3C(=O)Nc3ccc(F)nc3)nc3c2CCC3)n[nH]1 (single isomer, unassigned) [Compound 8b]			0.31	0.04	0.02		5.1e-09 M								1000	40 to 59	> 60	< 10	10	1.042	IC50 ([1]; 72 h): 10000 nM; IC50 [4]: 9.76 nM; inhibition at 0.001 µM ([4]; read-out: Average % Inh @ 1 nM): < 39%; IC50 [5]: 3 nM; inhibition at 0.001 µM ([5]; read-out: Average % Inh @ 1 nM): > 60%; IC50 [7, 24]: 3.11e-09 M; Hill Slope N2 ([7]; IGF-1R, ATP 100 μM, run N2): 1.307; IC50 [7, 25]: 5.49e-09 M; IC50 ([8]; 72 h): < 10000 nM; IC50 ([9]; prostate cancer, 72 h): < 10000 nM; IC50 ([11]; BT-20, BT20, breast cancer, 72 h): < 10000 nM; IC50 ([12]; 72 h): < 10000 nM; IC50 ([13]; UACC-812, UACC812, breast cancer, 72 h): < 10000 nM; IC50 ([14]; 72 h): < 10000 nM
